Measurements reported in patent US10980775B2, “Composition for prevention or treatment of cutaneous disorder” (XANTIAL, priority 2015, dated 2021).
“And” between values parts separate entries of the source, which are not always exact repeats. Equal entries are not always repeated.

How the values were obtained:
[1] = test system: collagen I expression in NHDF; experiment: Collagen I expression in NHDF stimulated with vitamin C+TGF-beta, in situ immunolabeling; type: cell-based, human; settings: 50 μg/ml, 72 hours
Method: Analysis of collagen I expression in NHDF stimulated with vitamin C+TGF-beta by in situ immunolabeling. Activated HMVEC release TGF-beta which stimulates extracellular matrix synthesis by NHDF. TGF-beta stimulates the synthesis of collagen and vitamin C its release, creating experimental conditions close to TSC pathology conditions.
Normal Human Dermal Fibroblasts (NHDF) • Cell type: NHDF, used at the 8th passage • Culture conditions: 37° C., 5% CO2 • Culture medium: DMEM supplemented with L-glutamine 2 mM, Penicillin 50 U/ml—Streptomycin 50 μg/ml Fetal calf serum (FCS) 10% • Assay medium: DMEM supplemented with L-glutamine 2 mM, Penicillin 50 U/ml, Streptomycin 50 μg/ml FCS 1%. Culture and Treatment
The fibroblasts were seeded in 96-well plates and cultured in culture medium for 24 hours. The medium was then replaced with assay medium containing or not (control) the test compounds or associations in presence or not (non-stimulated control) of the association vitamin C+TGF-beta (20 μg/ml+10 ng/ml). The cells were incubated for 72 hours. All experimental conditions were performed in n=3.
After incubation, culture media were discarded and the cells were rinsed, fixed and permeabilized.
The acquisition of the images (5 photos per well) was performed using INCell Analyzer™ 1000 (GE Healthcare). Representative images for each experimental condition were included in the report.
The labeling was quantified by the measurement of the fluorescence intensity normalized to the total number of cells (Integration of numerical data with the Developer Toolbox 1.5, GE Healthcare software).

HMVEC/NHDF co-culture = experiment: Pseudotube formation (branching points) in VEGF-stimulated HMVEC/NHDF co-culture, in situ immunolabeling; type: cell-based, human; settings: VEGF 100 ng/ml, 10 days; for Number of branching points, Mean: n=3; for Number of branching points: single replicate
Method: Analysis of pseudotube formation in a HMVEC/NHDF co-culture by in situ immunolabeling.
Human Microvascular Endothelial Cells (HMVEC) • Cell type: HMVEC, used at the 7th passage
HMVEC/NHDF Co-Culture • Cell type: HMVEC+NHDF (50:50 ratio) • Culture conditions: 37° C., 5% CO2 • Co-culture medium: Endothelial Cell Basal Medium 2 (EBM-2) supplemented with Fetal calf serum (FCS) 5%, rhEGF, rhFGF, R3 IGF-1, hydrocortisone, vitamin C and gentamycin +
DMEM supplemented with L-glutamine 2 mM, Penicillin 50 U/ml, Streptomycin 50 μg/ml FCS 10%.
The HMVEC and NHDF were seeded in 96-well plates and co-cultured in co-culture medium for 24 hours. The medium was then removed and replaced by co-culture medium containing or not (control) the test compounds, associations or the reference, suramine at 5 μM, in presence or not (non-stimulated control) of the inducer, VEGF at 100 ng/ml. The cells were incubated for 10 days with treatment renewal after 72 hours of incubation. All experimental conditions were performed in n=3.
After incubation, culture media were discarded and the cells were rinsed, fixed and permeabilized. The cells were then labeled using a primary antibody anti-Von Willebrand Factor.
The formation of pseudotubes was observed using a NIKON Diaphot 300 microscope (lens×4). The images were captured (1 photo per well) using a NIKON DS-Fi1 camera and NIS-Elements 3.10 software. Then the number of branching points within the pseudotube network was counted on each image.

COc1cc2c(cc1O)CCC(C)(C)O2 [Dimethylmethoxy chromanol]
Collagen I, Mean (basic data) ([1]; NHDF + vitamin C+TGF-beta (20 μg/ml+10 ng/ml), n=3): 274529 | Collagen I branching points (basic data) ([1]; NHDF + vitamin C+TGF-beta (20 μg/ml+10 ng/ml), single replicate): 250891 and 283414 and 289284 | % Stimulated control (collagen I) ([1]; NHDF + vitamin C+TGF-beta): 73% | % inhibition (collagen I expression) ([1]; NHDF + vitamin C+TGF-beta): 71% | % stimulated control (branching points) (HMVEC/NHDF co-culture; 6 μg/ml): 79% | Number of branching points, Mean (HMVEC/NHDF co-culture; 6 μg/ml): 98 | Number of branching points (HMVEC/NHDF co-culture; 6 μg/ml): 83 and 104 and 109 | inhibition at 6 µg/mL (HMVEC/NHDF co-culture; Homo sapiens, 240 h, 6 μg/ml): 21%

Oc1ccc(/C=C/c2cc(O)cc(O)c2)cc1 [Resveratrol, 3,5,4′-trihydroxy-trans-stilbene]
% stimulated control (branching points) (HMVEC/NHDF co-culture; 2 μg/ml): 113% | Number of branching points, Mean (HMVEC/NHDF co-culture; 2 μg/ml): 141 | Number of branching points (HMVEC/NHDF co-culture; 2 μg/ml): 139 and 157 and 126 | inhibition at 2 µg/mL (HMVEC/NHDF co-culture; Homo sapiens, 240 h, 2 μg/ml): -13%

Cc1ccc(C(=O)Nc2ccc(S(=O)(=O)O)c3cc(S(=O)(=O)O)cc(S(=O)(=O)O)c23)cc1NC(=O)c1cccc(NC(=O)Nc2cccc(C(=O)Nc3cc(C(=O)Nc4ccc(S(=O)(=O)O)c5cc(S(=O)(=O)O)cc(S(=O)(=O)O)c45)ccc3C)c2)c1 [Suramine, reference compound]
% stimulated control (branching points) (HMVEC/NHDF co-culture; 5 μM): 63% | Number of branching points, Mean (HMVEC/NHDF co-culture; 5 μM): 78 | Number of branching points (HMVEC/NHDF co-culture; 5 μM): 72 and 85 and 79 | inhibition at 5 µM (HMVEC/NHDF co-culture; Homo sapiens, 240 h, 5 μM): 37%
